Assay results reported in US20080075784A1, “Taste Making Formulation Comprising The Drug In A Dissolution-Retarded Form And/Or Cyclodextrin In A Dissolution-Enhanced Form” (Pfizer Inc., priority 2004, published 2008).

Assay: β-cyclodextrin dissolution rate in deionized water by refractive index
Format: physicochemical
Conditions: for β-Cyclodextrin Dissolved (%): 350 mg in 50 mL deionized water; for amount of dissolved cyclodextrin at one minute relative to the 156 μm cyclodextrin: one minute following administration
Description: In this example, the amount of dissolved cyclodextrin provided by several different β-cyclodextrin samples with varying ranges of particle size was determined. Samples of β-cyclodextrin with average particle sizes ranging from 116 μm to 249 μm were obtained from Roquette America of Keokuk, Iowa. In addition, a β-cyclodextrin sample with an average particle size range of about 57 μm was prepared by first dissolving the 249-μm commercially available sample in water and then lyophilizing the solution to form a fine powder. Volume weighted mean particle diameter in microns for each β-cyclodextrin sample was determined using a Horiba particle sizer.
The dissolution rates of these samples were determined as follows. A 350 mg sample of β-cyclodextrin of a given particle size was placed into 50 mL of deionized water, and the refractive index was measured at the time points noted in Table 2. Refractive index measurements were compared to a calibration curve of standards with known concentration, and the concentration of dissolved β-cyclodextrin versus time was determined.

OC[C@H]1O[C@@H]2O[C@H]3[C@H](O)[C@@H](O)[C@@H](O[C@H]4[C@H](O)[C@@H](O)[C@@H](O[C@H]5[C@H](O)[C@@H](O)[C@@H](O[C@H]6[C@H](O)[C@@H](O)[C@@H](O[C@H]7[C@H](O)[C@@H](O)[C@@H](O[C@H]8[C@H](O)[C@@H](O)[C@@H](O[C@H]1[C@H](O)[C@H]2O)O[C@@H]8CO)O[C@@H]7CO)O[C@@H]6CO)O[C@@H]5CO)O[C@@H]4CO)O[C@@H]3CO [249 μm, β-cyclodextrin]
cyclodextrin dissolved after one minute (one minute, value taken from Table 3): 20 wt % | β-Cyclodextrin Dissolved (%) (time 0 min): 0% | β-Cyclodextrin Dissolved (%) (time 1 min): 20% | β-Cyclodextrin Dissolved (%) (time 2 min): 26% | β-Cyclodextrin Dissolved (%) (time 3 min): 42% | β-Cyclodextrin Dissolved (%) (time 4 min): 54% | β-Cyclodextrin Dissolved (%) (time 5 min): 67%

OC[C@H]1O[C@@H]2O[C@H]3[C@H](O)[C@@H](O)[C@@H](O[C@H]4[C@H](O)[C@@H](O)[C@@H](O[C@H]5[C@H](O)[C@@H](O)[C@@H](O[C@H]6[C@H](O)[C@@H](O)[C@@H](O[C@H]7[C@H](O)[C@@H](O)[C@@H](O[C@H]8[C@H](O)[C@@H](O)[C@@H](O[C@H]1[C@H](O)[C@H]2O)O[C@@H]8CO)O[C@@H]7CO)O[C@@H]6CO)O[C@@H]5CO)O[C@@H]4CO)O[C@@H]3CO [116 μm, β-cyclodextrin]
amount of dissolved cyclodextrin at one minute relative to the 156 μm cyclodextrin: about 1.4 fold | β-Cyclodextrin Dissolved (%) (time 0 min): 0% | β-Cyclodextrin Dissolved (%) (time 1 min): 58% | β-Cyclodextrin Dissolved (%) (time 2 min): 76% | β-Cyclodextrin Dissolved (%) (time 3 min): 84% | β-Cyclodextrin Dissolved (%) (time 4 min): 88%

OC[C@H]1O[C@@H]2O[C@H]3[C@H](O)[C@@H](O)[C@@H](O[C@H]4[C@H](O)[C@@H](O)[C@@H](O[C@H]5[C@H](O)[C@@H](O)[C@@H](O[C@H]6[C@H](O)[C@@H](O)[C@@H](O[C@H]7[C@H](O)[C@@H](O)[C@@H](O[C@H]8[C@H](O)[C@@H](O)[C@@H](O[C@H]1[C@H](O)[C@H]2O)O[C@@H]8CO)O[C@@H]7CO)O[C@@H]6CO)O[C@@H]5CO)O[C@@H]4CO)O[C@@H]3CO [183 μm, β-cyclodextrin]
β-Cyclodextrin Dissolved (%) (time 0 min): 0% | β-Cyclodextrin Dissolved (%) (time 1 min): 45% | β-Cyclodextrin Dissolved (%) (time 2 min): 52% | β-Cyclodextrin Dissolved (%) (time 3 min): 64% | β-Cyclodextrin Dissolved (%) (time 4 min): 64% | β-Cyclodextrin Dissolved (%) (time 5 min): 71%

OC[C@H]1O[C@@H]2O[C@H]3[C@H](O)[C@@H](O)[C@@H](O[C@H]4[C@H](O)[C@@H](O)[C@@H](O[C@H]5[C@H](O)[C@@H](O)[C@@H](O[C@H]6[C@H](O)[C@@H](O)[C@@H](O[C@H]7[C@H](O)[C@@H](O)[C@@H](O[C@H]8[C@H](O)[C@@H](O)[C@@H](O[C@H]1[C@H](O)[C@H]2O)O[C@@H]8CO)O[C@@H]7CO)O[C@@H]6CO)O[C@@H]5CO)O[C@@H]4CO)O[C@@H]3CO [57 μm, β-cyclodextrin]
amount of dissolved cyclodextrin at one minute relative to the 156 μm cyclodextrin: about 2.4 fold | β-Cyclodextrin Dissolved (%) (time 0 min): 0% | β-Cyclodextrin Dissolved (%) (time 1 min): 102% | β-Cyclodextrin Dissolved (%) (time 2 min): 102% | β-Cyclodextrin Dissolved (%) (time 3 min): 97% | β-Cyclodextrin Dissolved (%) (time 4 min): 99% | β-Cyclodextrin Dissolved (%) (time 5 min): 100%

OC[C@H]1O[C@@H]2O[C@H]3[C@H](O)[C@@H](O)[C@@H](O[C@H]4[C@H](O)[C@@H](O)[C@@H](O[C@H]5[C@H](O)[C@@H](O)[C@@H](O[C@H]6[C@H](O)[C@@H](O)[C@@H](O[C@H]7[C@H](O)[C@@H](O)[C@@H](O[C@H]8[C@H](O)[C@@H](O)[C@@H](O[C@H]1[C@H](O)[C@H]2O)O[C@@H]8CO)O[C@@H]7CO)O[C@@H]6CO)O[C@@H]5CO)O[C@@H]4CO)O[C@@H]3CO [156 μm, β-cyclodextrin]
amount of dissolved cyclodextrin provided by crystalline cyclodextrin (one minute after administration): about 41% | β-Cyclodextrin Dissolved (%) (time 0 min): 0% | β-Cyclodextrin Dissolved (%) (time 1 min): 41% | β-Cyclodextrin Dissolved (%) (time 2 min): 81% | β-Cyclodextrin Dissolved (%) (time 3 min): 96% | β-Cyclodextrin Dissolved (%) (time 4 min): 92% | β-Cyclodextrin Dissolved (%) (time 5 min): 95%
